Measurements from patent US20230234962A1, “OXA-AZASPIRO DERIVATIVE, AND PREPARATION METHOD THEREFOR AND PHARMACEUTICAL USE THEREOF” (priority 2020, published 2023).
Where two headings read alike, the source gives them in different places.

How the values were obtained:
Assay type in all cases: biochemical
PI3Kα enzyme = PI3Kα enzyme (Homo sapiens, UniProt P42336); test: ADP-Glo kinase assay, selectivity, PI3Kα enzyme; settings: 11 concentrations from 10000 nM
Protocol: (§1) In this experiment, an ADP-Glo™ kinase assay kit is used. A substrate is phosphorylated under the action of enzyme, and ADP is generated at the same time. An ADP-Glo Reagent is added to remove unreacted ATP in the reaction system, and the ADP generated by the reaction is detected by a kinase detection reagent. In the presence of a compound, the inhibition rate of the compound is calculated by measuring the signal value.
(§2) Test compounds were each subjected to 3-fold dilution from a starting concentration of 10000 nM to obtain 11 concentrations, and duplicate wells were set for the test. Gradient dilution to a corresponding 100-fold final concentration in a 384-well plate was performed to obtain solutions with 11 different concentrations. 50 nL of each solution was transferred to compound wells of a 384-well plate with Echo; negative control wells were added with 50 nL of DMSO. A kinase solution with a 2-fold final concentration was prepared using 1×kinase buffer. 2.5 μL of the kinase solution with a 2-fold final concentration was added to the compound wells; 2.5 μL of the 1× kinase buffer was added to the negative control wells. The mixture was centrifuged at 1000 rpm for 30 s, mixed well by shaking, and then incubated at room temperature for 10 min. A mixed solution of ATP and substrate P1P2 with a 2-fold final concentration was prepared using 1× kinase buffer. The reaction was initiated by adding 2.5 μL of the mixed solution of ATP and substrate with a 2-fold final concentration. The mixture in the 384-well plate was centrifuged at 1000 rpm for 30 s, mixed well by shaking, and then reacted at room temperature for 120 min. 5 μL of ADP-Glo reagent was added, and the mixture was centrifuged at 1000 rpm for 30 s, mixed well by shaking, and then incubated at room temperature for 40 min. 10 μL of kinase detection reagent was added, and the resulting mixture was centrifuged at 1000 rpm for 30 s, mixed well by shaking, and then incubated at room temperature for 30 min. The luminescence RLU was read with an Envision microplate reader.
(§3) IC50 values for the inhibitory activity of the compounds were calculated using Graphpad Prism software.

PI3Kδ enzyme = PI3Kδ enzyme (Homo sapiens, UniProt O00329); test: ADP-Glo kinase assay, inhibition of PI3Kδ enzyme
Protocol: as §1, §2, §3

PI3Kβ enzyme = PI3Kβ enzyme (Homo sapiens, UniProt P42338); test: ADP-Glo kinase assay, selectivity, PI3Kβ enzyme; settings: 11 concentrations from 10000 nM
Protocol: as §1, §2, §3

PI3Kγ enzyme = PI3Kγ enzyme (Homo sapiens, UniProt P48736); test: ADP-Glo kinase assay, selectivity, PI3Kγ enzyme; settings: 11 concentrations from 10000 nM
Protocol: as §1, §2, §3

[1] = ADP-Glo, PIK3CD/PIK3R1, 11 concentrations from 10000 nM, read-out: PI3Kδ enzyme IC50

Sequence of PI3Kδ enzyme (O00329 whole entry): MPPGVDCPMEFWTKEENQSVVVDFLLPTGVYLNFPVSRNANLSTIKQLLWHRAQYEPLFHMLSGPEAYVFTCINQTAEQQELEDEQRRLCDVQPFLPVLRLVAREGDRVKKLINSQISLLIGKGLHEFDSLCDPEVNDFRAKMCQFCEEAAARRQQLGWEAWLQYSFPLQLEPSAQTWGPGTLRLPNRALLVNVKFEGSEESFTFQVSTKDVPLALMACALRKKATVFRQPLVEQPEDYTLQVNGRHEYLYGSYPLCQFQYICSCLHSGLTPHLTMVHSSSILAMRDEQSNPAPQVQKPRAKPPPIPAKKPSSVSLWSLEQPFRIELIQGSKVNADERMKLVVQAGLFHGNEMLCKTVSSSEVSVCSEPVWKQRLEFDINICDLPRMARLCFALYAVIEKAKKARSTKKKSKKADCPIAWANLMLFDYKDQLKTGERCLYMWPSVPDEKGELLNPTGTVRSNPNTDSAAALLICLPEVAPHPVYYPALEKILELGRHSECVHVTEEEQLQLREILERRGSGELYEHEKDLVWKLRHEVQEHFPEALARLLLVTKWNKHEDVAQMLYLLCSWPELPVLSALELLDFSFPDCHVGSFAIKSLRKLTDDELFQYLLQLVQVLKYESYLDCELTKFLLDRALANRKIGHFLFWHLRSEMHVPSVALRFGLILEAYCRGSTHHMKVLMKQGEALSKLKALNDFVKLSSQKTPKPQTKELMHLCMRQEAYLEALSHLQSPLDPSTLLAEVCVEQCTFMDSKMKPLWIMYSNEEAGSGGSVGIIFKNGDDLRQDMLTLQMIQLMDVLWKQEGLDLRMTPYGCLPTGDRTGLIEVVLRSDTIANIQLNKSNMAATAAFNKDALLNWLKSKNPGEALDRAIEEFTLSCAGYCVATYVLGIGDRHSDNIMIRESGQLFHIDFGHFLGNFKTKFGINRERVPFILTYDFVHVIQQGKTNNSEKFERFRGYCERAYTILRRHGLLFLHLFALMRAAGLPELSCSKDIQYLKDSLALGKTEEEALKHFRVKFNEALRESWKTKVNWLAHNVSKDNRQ
Sequence of PI3Kδ enzyme (P27986 whole entry partner): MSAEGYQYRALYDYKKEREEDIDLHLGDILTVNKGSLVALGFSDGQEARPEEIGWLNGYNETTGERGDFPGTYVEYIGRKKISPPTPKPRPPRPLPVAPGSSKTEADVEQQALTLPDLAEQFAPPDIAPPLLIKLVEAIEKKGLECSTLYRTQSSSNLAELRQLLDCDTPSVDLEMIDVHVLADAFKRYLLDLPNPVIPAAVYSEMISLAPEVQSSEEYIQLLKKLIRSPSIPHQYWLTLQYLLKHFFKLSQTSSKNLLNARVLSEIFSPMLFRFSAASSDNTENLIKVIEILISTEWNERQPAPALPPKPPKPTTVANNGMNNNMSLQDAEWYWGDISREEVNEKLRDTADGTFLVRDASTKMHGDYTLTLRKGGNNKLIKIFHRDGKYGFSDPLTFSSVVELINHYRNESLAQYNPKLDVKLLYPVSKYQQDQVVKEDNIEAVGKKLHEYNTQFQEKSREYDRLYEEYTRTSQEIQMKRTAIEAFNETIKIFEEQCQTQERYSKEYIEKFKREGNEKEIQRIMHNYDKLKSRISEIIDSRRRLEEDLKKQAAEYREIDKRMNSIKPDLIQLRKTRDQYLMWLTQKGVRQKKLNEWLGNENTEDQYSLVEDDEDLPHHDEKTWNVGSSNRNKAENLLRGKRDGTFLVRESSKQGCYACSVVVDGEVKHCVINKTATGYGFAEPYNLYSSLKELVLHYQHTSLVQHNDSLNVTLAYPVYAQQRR
Sequence of PI3Kα enzyme (P42336 whole entry): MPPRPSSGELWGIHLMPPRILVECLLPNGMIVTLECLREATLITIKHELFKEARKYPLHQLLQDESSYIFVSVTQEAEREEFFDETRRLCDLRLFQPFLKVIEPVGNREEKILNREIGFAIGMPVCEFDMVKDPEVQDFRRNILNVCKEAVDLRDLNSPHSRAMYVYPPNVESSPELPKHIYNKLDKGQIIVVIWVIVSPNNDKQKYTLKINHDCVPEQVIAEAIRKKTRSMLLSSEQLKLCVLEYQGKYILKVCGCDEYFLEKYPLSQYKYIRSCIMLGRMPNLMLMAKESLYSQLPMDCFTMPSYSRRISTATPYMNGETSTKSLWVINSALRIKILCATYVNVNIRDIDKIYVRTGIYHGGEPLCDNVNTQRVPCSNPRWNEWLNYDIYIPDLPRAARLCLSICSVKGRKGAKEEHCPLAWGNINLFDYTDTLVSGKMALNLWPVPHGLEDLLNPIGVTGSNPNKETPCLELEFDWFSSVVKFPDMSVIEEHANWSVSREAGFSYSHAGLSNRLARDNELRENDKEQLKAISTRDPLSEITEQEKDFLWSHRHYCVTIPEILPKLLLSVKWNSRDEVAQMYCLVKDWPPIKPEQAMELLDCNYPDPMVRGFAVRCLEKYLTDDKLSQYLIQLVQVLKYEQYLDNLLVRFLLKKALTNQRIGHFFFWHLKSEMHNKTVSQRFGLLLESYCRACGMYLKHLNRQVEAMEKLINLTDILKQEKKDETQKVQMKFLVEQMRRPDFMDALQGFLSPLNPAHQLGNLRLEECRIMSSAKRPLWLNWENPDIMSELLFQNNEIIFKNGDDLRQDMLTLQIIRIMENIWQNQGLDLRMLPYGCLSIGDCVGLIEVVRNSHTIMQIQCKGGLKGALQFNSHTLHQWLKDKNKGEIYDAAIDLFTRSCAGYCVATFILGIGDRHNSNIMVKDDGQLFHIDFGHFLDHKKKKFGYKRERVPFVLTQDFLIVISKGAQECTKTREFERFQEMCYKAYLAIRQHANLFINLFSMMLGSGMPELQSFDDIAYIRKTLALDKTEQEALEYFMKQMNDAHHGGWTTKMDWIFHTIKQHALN
Sequence of PI3Kα enzyme (P27986 whole entry, further chain): as the sequence (P27986 whole entry partner) above
Sequence of PI3Kγ enzyme (P48736 whole entry): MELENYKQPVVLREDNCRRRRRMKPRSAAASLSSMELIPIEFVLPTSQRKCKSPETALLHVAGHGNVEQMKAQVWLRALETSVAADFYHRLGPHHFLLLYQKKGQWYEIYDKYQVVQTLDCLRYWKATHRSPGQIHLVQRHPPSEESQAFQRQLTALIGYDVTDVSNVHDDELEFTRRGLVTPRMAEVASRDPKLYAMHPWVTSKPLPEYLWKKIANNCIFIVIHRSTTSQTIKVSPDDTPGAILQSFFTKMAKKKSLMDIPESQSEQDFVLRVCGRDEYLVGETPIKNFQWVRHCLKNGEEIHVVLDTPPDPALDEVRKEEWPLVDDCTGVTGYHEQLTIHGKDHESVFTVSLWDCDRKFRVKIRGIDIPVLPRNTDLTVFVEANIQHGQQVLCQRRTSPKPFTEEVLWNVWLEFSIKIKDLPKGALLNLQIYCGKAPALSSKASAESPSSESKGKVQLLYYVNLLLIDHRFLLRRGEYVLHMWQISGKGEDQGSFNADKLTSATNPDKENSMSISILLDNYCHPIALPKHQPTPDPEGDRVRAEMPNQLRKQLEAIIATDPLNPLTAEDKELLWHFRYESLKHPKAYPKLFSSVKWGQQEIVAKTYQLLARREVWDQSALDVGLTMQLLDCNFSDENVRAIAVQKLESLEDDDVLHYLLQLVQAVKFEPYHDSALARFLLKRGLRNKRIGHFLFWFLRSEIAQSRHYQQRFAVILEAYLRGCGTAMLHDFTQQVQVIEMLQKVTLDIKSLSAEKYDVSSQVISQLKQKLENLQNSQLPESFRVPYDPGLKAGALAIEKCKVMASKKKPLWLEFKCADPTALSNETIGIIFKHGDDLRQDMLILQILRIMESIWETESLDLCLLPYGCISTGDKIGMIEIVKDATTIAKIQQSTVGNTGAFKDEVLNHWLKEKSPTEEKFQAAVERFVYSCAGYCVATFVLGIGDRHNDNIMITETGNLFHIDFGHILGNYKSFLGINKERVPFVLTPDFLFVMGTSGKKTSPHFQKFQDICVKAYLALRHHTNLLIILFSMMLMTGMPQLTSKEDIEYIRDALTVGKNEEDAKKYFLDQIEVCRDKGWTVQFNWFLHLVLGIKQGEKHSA
Sequence of PI3Kβ enzyme (P27986 whole entry): as the sequence (P27986 whole entry partner) above
Sequence of PI3Kβ enzyme (P42338 whole entry): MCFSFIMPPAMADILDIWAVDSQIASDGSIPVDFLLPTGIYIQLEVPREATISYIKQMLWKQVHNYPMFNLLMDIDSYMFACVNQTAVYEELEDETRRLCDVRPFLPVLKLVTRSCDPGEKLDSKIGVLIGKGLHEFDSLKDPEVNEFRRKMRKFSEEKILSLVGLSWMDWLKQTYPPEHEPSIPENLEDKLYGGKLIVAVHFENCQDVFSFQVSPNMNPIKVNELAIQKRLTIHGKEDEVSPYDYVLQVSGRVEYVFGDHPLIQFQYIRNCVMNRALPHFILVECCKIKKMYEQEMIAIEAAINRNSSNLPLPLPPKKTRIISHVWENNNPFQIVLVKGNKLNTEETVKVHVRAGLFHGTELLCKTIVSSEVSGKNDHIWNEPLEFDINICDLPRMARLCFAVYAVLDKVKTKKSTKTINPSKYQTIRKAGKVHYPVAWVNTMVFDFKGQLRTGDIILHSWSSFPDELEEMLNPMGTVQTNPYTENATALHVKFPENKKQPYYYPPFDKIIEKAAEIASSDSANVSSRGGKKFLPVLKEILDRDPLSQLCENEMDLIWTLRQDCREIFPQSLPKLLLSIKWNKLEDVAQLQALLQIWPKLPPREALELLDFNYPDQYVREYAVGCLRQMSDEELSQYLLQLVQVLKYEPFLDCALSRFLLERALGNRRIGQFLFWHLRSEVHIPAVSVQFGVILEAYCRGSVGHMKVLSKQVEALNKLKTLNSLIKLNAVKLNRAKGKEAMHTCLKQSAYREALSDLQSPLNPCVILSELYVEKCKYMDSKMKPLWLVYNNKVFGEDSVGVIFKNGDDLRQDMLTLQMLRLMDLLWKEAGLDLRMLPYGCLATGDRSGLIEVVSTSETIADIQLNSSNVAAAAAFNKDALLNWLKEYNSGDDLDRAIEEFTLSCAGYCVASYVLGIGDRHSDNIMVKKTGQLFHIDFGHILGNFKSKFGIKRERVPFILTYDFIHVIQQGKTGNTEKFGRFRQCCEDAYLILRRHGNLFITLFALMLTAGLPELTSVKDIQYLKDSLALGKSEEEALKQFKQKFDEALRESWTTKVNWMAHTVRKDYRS

Row | Compound | IC50 (PI3Kα enzyme) [nM] | IC50 (PI3Kδ enzyme) [nM] | IC50 (PI3Kβ enzyme) [nM] | IC50 (PI3Kγ enzyme) [nM] | IC50 (PI3Kδ enzyme; [1]) [nM]
1 | O=C(c1nn(-c2ccc(CN3CCOCC3)cc2)c2c1CS(=O)(=O)c1c(F)cccc1-2)N1CCOC2(CC2)C1 [Example 1, (6-fluoro-1-(4-(morpholinomethyl)phenyl)-5,5-dioxido-1,4-dihydrothiochromeno[4,3-c]pyrazol-3-yl)(4-oxa-7-azaspiro[2.5]octan-7-yl)methanone] | 468 | 13 | 1320 | 6210 | –
2 | Cc1cccc2c1-c1c(c(C(=O)N3CCOC4(CC4)C3)nn1-c1ccc(CN3CCOCC3)cc1)CS2(=O)=O [Example 12, (9-methyl-1-(4-(morpholinomethyl)phenyl)-5,5-dioxido-1,4-dihydrothiochromeno[4,3-c]pyrazol-3-yl)(4-oxa-7-azaspiro[2.5]octan-7-yl)methanone] | – | – | – | – | 5.8
3 | COc1ccc2c(c1)S(=O)(=O)Cc1c(C(=O)N3CCOC4(CC4)C3)nn(-c3ccc(CN4CCOCC4)cc3)c1-2 [Example 4, (7-methoxy-1-(4-(morpholinomethyl)phenyl)-5,5-dioxido-1,4-dihydrothiochromeno[4,3-c]pyrazol-3-yl)(4-oxa-7-azaspiro[2.5]octan-7-yl)methanone] | – | – | – | – | 7.9
4 | O=C(c1nn(-c2ccc(CN3CCOCC3)cc2)c2c1CS(=O)(=O)c1c(F)cccc1-2)N1CCOCC12CC2 [Control Example 10, (6-fluoro-1-(4-(morpholinomethyl)phenyl)-5,5-dioxido-1,4-dihydrothiochromeno[4,3-c]pyrazol-3-yl)(7-oxa-4-azaspiro[2.5]octan-4-yl)methanone, reference compound] | – | > 10000 | – | – | –
5 | COc1cccc2c1-c1c(c(C(=O)N3CCOC4(CC4)C3)nn1-c1ccc(CN3CCOCC3)cc1)CS2(=O)=O [Example 3, (9-methoxy-1-(4-(morpholinomethyl)phenyl)-5,5-dioxido-1,4-dihydrothiochromeno[4,3-c]pyrazol-3-yl)(4-oxa-7-azaspiro[2.5]octan-7-yl)methanone] | – | – | – | – | 5.6
6 | O=C(c1nn(-c2ccc(CN3CCOCC3)cc2)c2c1CS(=O)(=O)c1c-2ccc(Cl)c1F)N1CCOC2(CC2)C1 [Example 11, (7-chloro-6-fluoro-1-(4-(morpholinomethyl)phenyl)-5,5-dioxido-1,4-dihydrothiochromeno[4,3-c]pyrazol-3-yl)(4-oxa-7-azaspiro[2.5]octan-7-yl)methanone] | 441 | 10.5 | 736 | 8920 | –
7 | O=C(c1nn(-c2ccc(CN3CCOCC3)cc2)c2c1CS(=O)(=O)c1c(Cl)cccc1-2)N1CCOC2(CC2)C1 [Example 2, (6-chloro-1-(4-(morpholinomethyl)phenyl)-5,5-dioxido-1,4-dihydrothiochromeno[4,3-c]pyrazol-3-yl)(4-oxa-7-azaspiro[2.5]octan-7-yl)methanone] | – | – | – | – | 18.4
8 | COc1cccc2c1S(=O)(=O)Cc1c(C(=O)N3CCOC4(CC4)C3)nn(-c3ccc(CN4CCOCC4)cc3)c1-2 [Example 5, (6-methoxy-1-(4-(morpholinomethyl)phenyl)-5,5-dioxido-1,4-dihydrothiochromeno[4,3-c]pyrazol-3-yl)(4-oxa-7-azaspiro[2.5]octan-7-yl)methanone] | 2330 | 19 | 2790 | > 10000 | –
9 | O=C(c1nn(-c2ccc(CN3CCOCC3)cc2)c2c1CS(=O)(=O)c1cc(Cl)ccc1-2)N1CCOC2(CC2)C1 [Example 7, (7-chloro-1-(4-(morpholinomethyl)phenyl)-5,5-dioxido-1,4-dihydrothiochromeno[4,3-c]pyrazol-3-yl)(4-oxa-7-azaspiro[2.5]octan-7-yl)methanone] | 1520 | 26.5 | 1740 | > 10000 | –
10 | Cc1cccc2c1S(=O)(=O)Cc1c(C(=O)N3CCOC4(CC4)C3)nn(-c3ccc(CN4CCOCC4)cc3)c1-2 [Example 6, (6-methyl-1-(4-(morpholinomethyl)phenyl)-5,5-dioxido-1,4-dihydrothiochromeno[4,3-c]pyrazol-3-yl)(4-oxa-7-azaspiro[2.5]octan-7-yl)methanone] | 2570 | 68 | 7060 | > 10000 | –
11 | Cc1ccc2c(c1)S(=O)(=O)Cc1c(C(=O)N3CCOC4(CC4)C3)nn(-c3ccc(CN4CCOCC4)cc3)c1-2 [Example 9, (7-methyl-1-(4-(morpholinomethyl)phenyl)-5,5-dioxido-1,4-dihydrothiochromeno[4,3-c]pyrazol-3-yl)(4-oxa-7-azaspiro[2.5]octan-7-yl)methanone] | 1760 | 25 | 1550 | > 10000 | –
